In one test the target is T1, HDAC7 (Homo sapiens, UniProt Q8WUI4).
T1 sequence (Q8WUI4 1-952): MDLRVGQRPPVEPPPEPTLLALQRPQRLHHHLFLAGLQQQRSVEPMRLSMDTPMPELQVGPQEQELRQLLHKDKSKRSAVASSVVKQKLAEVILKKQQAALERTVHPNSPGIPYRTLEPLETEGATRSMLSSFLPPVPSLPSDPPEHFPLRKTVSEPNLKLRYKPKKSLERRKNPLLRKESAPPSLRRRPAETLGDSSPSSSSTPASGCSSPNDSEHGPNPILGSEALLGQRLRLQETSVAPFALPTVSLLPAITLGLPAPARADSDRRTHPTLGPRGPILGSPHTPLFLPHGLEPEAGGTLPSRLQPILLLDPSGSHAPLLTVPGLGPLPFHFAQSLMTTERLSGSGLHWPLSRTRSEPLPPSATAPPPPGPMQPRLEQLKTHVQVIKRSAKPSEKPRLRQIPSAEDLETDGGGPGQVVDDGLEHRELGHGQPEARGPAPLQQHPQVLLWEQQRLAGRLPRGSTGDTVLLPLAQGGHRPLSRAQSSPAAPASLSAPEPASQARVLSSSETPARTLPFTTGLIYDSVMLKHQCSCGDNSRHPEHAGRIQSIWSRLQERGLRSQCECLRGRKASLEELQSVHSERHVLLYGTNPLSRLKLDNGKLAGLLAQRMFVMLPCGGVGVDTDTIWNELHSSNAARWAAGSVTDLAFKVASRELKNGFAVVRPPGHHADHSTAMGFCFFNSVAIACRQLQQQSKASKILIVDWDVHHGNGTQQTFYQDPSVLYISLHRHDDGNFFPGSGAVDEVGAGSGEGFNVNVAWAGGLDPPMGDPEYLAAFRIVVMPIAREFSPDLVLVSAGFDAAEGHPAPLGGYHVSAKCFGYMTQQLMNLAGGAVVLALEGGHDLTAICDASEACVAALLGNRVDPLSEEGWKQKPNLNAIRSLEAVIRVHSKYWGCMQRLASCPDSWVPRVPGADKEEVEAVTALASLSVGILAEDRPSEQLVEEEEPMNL
Briefly: HDAC enzymatic assay, HDAC7. It is filed as biochemical. As for the experimental part:
(§1) Each compound was dissolved in DMSO, and progressively diluted solutions were used for testing. […] Upon its deacetylation, the fluorophore was released given rise to fluorescence emission which was detected by a fluorimeter, and the IC50 values of the compounds were determined by analyzing dose-response inhibition curves.

Another test concerns the target T2, HDAC6 (Homo sapiens, UniProt Q9UBN7).
T2 sequence (Q9UBN7 1-1215): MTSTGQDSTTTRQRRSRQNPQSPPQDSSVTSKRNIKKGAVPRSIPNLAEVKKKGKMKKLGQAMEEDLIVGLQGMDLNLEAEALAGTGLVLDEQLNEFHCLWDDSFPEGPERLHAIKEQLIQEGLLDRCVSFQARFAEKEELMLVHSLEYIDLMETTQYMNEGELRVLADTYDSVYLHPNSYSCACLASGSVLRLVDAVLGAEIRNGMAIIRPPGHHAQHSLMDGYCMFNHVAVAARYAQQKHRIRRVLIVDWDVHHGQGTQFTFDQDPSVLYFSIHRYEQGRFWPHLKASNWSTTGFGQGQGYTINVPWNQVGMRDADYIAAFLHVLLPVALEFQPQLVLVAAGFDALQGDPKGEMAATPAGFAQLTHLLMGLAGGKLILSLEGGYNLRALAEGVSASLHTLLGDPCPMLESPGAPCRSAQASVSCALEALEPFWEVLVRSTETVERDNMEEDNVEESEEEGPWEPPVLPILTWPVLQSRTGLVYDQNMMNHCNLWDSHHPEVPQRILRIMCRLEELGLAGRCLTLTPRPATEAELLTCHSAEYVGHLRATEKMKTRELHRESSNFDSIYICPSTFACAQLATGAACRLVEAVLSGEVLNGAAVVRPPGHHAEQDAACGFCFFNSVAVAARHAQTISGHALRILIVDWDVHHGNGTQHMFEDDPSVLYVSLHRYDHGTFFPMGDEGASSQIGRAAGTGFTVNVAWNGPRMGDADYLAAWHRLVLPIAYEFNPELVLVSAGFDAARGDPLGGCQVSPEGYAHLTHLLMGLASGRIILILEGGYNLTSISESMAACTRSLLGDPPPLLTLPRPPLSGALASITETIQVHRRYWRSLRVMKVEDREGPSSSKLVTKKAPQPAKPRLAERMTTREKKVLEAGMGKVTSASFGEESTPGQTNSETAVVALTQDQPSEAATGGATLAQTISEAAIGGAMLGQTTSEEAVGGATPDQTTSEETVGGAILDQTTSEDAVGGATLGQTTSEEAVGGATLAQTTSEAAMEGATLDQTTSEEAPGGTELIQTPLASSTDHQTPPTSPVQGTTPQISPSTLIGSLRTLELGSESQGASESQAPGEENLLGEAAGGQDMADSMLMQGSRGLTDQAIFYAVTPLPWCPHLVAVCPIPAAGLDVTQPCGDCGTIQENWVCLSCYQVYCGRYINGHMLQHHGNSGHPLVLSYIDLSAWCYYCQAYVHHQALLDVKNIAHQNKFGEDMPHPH
Briefly: HDAC enzymatic assay, HDAC6. The test is classed as biochemical. As to the method:
as §1

The subject of test [1] is HCT116 colon cancer cells. Briefly: Cytotoxicity, sulphorodamine B, HCT116. Particulars: Homo sapiens, HCT-116, read-out: HCT116 cell line IC50 (μM).
Procedure: They were allowed to attach and recover for at least 24 h.
The plates were incubated for 24 h at 37° C., after which they were washed 3 times by removal of the supernatant and addition of PBS. The plates were then incubated for further 48 h at 37° C. 200 μl PBS and 50 μl of cold 80% TCA were added and the plates were incubated on ice for at least 1 h. TCA was removed and the plates were washed 3 times by immersion in distilled-water. They were then dried on paper at 40° C. for 5 min. 200 μl of 0.4% sulphorodamine B in 1% acetic acid were added. The plates were incubated at room temperature for further 30 min. Sulphorodamine B was removed, and the plates were washed 3 times by immersion in 1% acetic acid and were dried on paper and at 40° C. for 5 min. Then 200 μl Tris 10 mM were added. The plates were kept under magnetic stirring for 20 min. Cell survival was determined by means of optical density by a Multiskan spectrofluorimeter at 540 nm. The amount of cells killed was calculated as the percentage decrease in sulphorodamine B binding compared to control cultures.
[2] abbreviates: fluorogenic tetrapeptide RHKKAc substrate 10 μM, read-out: HDAC isoforms IC50 (nM), 7.
Where [3] appears, read: fluorogenic tetrapeptide RHKKAc substrate 10 μM, read-out: HDAC isoforms IC50 (nM), 6.
[4] abbreviates: Table 2, thio (SH) vs hydroxamate (CONHOH) MBG analogues, read-out: HDAC isoforms, 7 (IC50).
The mark [5] stands for this setting: Table 2, thio (SH) vs hydroxamate (CONHOH) MBG analogues, read-out: HDAC isoforms, 6 (IC50).

Like-named read-outs stand apart in the source and are kept apart here.

A word on the IC50: it is the point on the concentration scale where inhibition reaches its midpoint.

As for `O=C1NC[C@H](c2ccccc2)[C@H]1C(=O)N[C@@H](CCCCCS)C(=O)Nc1ccccc1` [Example 30, (3R,4S)-2-Oxo-4-phenyl-pyrrolidine-3-carboxylic acid ((S)-6-mercapto-1-phenylcarbamoyl-hexyl)-amide], the IC50 at HDAC7 (setting [2]) and on HDAC6 (setting [3]) was 100 to 500 nM in each case.

`O=C1CCC[C@@H](C(=O)N[C@@H](CCCCCS)C(=O)NC2CCCC2)N1` [Example 24, (S)-6-Oxo-piperidine-2-carboxylic acid ((S)-1-cyclopentylcarbamoyl-6-mercapto-hexyl)amide]: the IC50 on HDAC7 (setting [2]) and on HDAC6 (setting [3]) was under 50 nM throughout.

As for `O=C1NC[C@@H](c2ccccc2)[C@@H]1C(=O)N[C@@H](CCCCCS)C(=O)Nc1ccccc1` [Example 31, (3S,4R)-2-Oxo-4-phenyl-pyrrolidine-3-carboxylic acid ((S)-6-mercapto-1-phenylcarbamoyl-hexyl)-amide], the IC50 on HDAC7 (setting [4]) is under 50 nM; on HDAC7 (setting [2]) it was under 50 nM; in test [1] it was 1 to 10 µM; at HDAC6 (setting [5]) it was under 50 nM; at HDAC6 (setting [3]), under 50 nM.

On to `O=C1NC[C@H](c2ccccc2)[C@@H]1C(=O)N[C@@H](CCCCCS)C(=O)Nc1ccccc1` [Example 28, (3S,4S)-2-Oxo-4-phenyl-pyrrolidine-3-carboxylic acid ((S)-6-mercapto-1-phenylcarbamoyl-hexyl)-amide], for which the IC50 was 100 to 500 nM on HDAC7 (setting [2]) and under 50 nM on HDAC6 (setting [3]).

For the compound `CN1C(=O)CCC[C@H]1C(=O)N[C@@H](CCCCCS)C(=O)Nc1ccccc1` [Example 40, (S)-1-Methyl-6-oxo-piperidine-2-carboxylic acid ((S)-6-mercapto-1-phenylcarbamoyl-hexyl)-amide], the IC50 at HDAC7 (setting [2]) and on HDAC6 (setting [3]) was under 50 nM throughout.

Regarding `O=C1NCCC[C@@H]1C(=O)N[C@@H](CCCCCS)C(=O)Nc1ccccc1` [Example 36, (S)-2-Oxo-piperidine-3-carboxylic acid ((S)-6-mercapto-1-phenylcarbamoyl-hexyl)amide], the IC50 at HDAC7 (setting [2]) is 50 to 100 nM; on HDAC6 (setting [3]) it was under 50 nM.

As to `Cc1ccc(NC(=O)[C@H](CCCCCS)NC(=O)[C@@H]2CCCC(=O)N2)cc1` [Example 39, (S)-6-Oxo-piperidine-2-carboxylic acid ((S)-6-mercapto-1-p-tolylcarbamoyl-hexyl)amide], the IC50 at HDAC7 (setting [2]) and on HDAC6 (setting [3]) was under 50 nM in each case.

For `Cc1cccc(CCNC(=O)[C@H](CCCCCS)NC(=O)[C@@H]2CCCC(=O)N2)c1` [Example 34, (S)-6-Oxo-piperidine-2-carboxylic acid [(S)-6-mercapto-1-(2-m-tolyl-ethylcarbamoyl)hexyl]-amide], the IC50 at HDAC7 (setting [2]) was 100 to 500 nM; on HDAC6 (setting [3]), under 50 nM.

In the case of `O=C1CCC[C@@H](C(=O)N[C@@H](CCCCCS)C(=O)N2CCc3ccccc3C2)N1` [Example 32, (S)-6-Oxo-piperidine-2-carboxylic acid [(S)-1-(3,4-dihydro-1H-isoquinoline-2-carbonyl)-6-mercapto-hexyl]-amide], the IC50 on HDAC7 (setting [2]) and at HDAC6 (setting [3]) was 100 to 500 nM in each case.

Turning to `O=C1CCC[C@@H](C(=O)N[C@@H](CCCCCS)C(=O)Nc2ccccc2)N1` [Example 23, (S)-6-Oxo-piperidine-2-carboxylic acid ((S)-6-mercapto-1-phenylcarbamoyl-hexyl)amide], the IC50 at HDAC7 (setting [2]) and at HDAC6 (setting [3]) was under 50 nM each time.

`O=C1CC[C@H](C(=O)N[C@@H](CCCCCS)C(=O)Nc2ccccc2)N1` [Example 33, (R)-5-Oxo-pyrrolidine-2-carboxylic acid ((S)-6-mercapto-1-phenylcarbamoyl-hexyl)amide]: the IC50 at HDAC7 (setting [4]) is under 50 nM; at HDAC7 (setting [2]), under 50 nM; in test [1], 1 to 10 µM; on HDAC6 (setting [5]) it was under 50 nM; at HDAC6 (setting [3]), under 50 nM.

`O=C1C[C@@H](C(=O)N[C@@H](CCCCCS)C(=O)Nc2ccccc2)N1` [Example 27, (S)-4-Oxo-azetidine-2-carboxylic acid ((S)-6-mercapto-1-phenylcarbamoyl-hexyl)amide]: the IC50 at HDAC7 (setting [2]) and at HDAC6 (setting [3]) was under 50 nM throughout.

Consider `O=C1NC[C@@H](c2ccccc2)[C@H]1C(=O)N[C@@H](CCCCCS)C(=O)Nc1ccccc1` [Example 29, (3R,4R)-2-Oxo-4-phenyl-pyrrolidine-3-carboxylic acid ((S)-6-mercapto-1-phenylcarbamoyl-hexyl)-amide], for which the IC50 on HDAC7 (setting [2]) is 100 to 500 nM; at HDAC6 (setting [3]), under 50 nM.

For the compound `O=C1CCC[C@H](C(=O)N[C@@H](CCCCCS)C(=O)Nc2ccccc2)N1` [Example 37, (R)-6-Oxo-piperidine-2-carboxylic acid ((S)-6-mercapto-1-phenylcarbamoyl-hexyl)amide], the IC50 on HDAC7 (setting [2]) is 100 to 500 nM; on HDAC6 (setting [3]) it was under 50 nM.

As to `O=C1NCCC[C@H]1C(=O)N[C@@H](CCCCCS)C(=O)Nc1ccccc1` [Example 35, (R)-2-Oxo-piperidine-3-carboxylic acid ((S)-6-mercapto-1-phenylcarbamoyl-hexyl)amide], the IC50 at HDAC7 (setting [2]) and at HDAC6 (setting [3]) was under 50 nM each time.

Turning to `O=C1CCC[C@@H](C(=O)N[C@@H](CCCCCS)C(=O)NCc2cccc(OCc3ccccc3)c2)N1` [Example 25, (S)-6-Oxo-piperidine-2-carboxylic acid [(S)-1-(3-benzyloxy-benzylcarbamoyl)-6-mercapto-hexyl]-amide], the IC50 lay within 100 to 500 nM at HDAC7 (setting [2]) and 50 to 100 nM at HDAC6 (setting [3]).

With `O=C1CCC[C@@H](C(=O)N[C@@H](CCCCCS)C(=O)NCc2ccc(C(F)(F)F)cc2)N1` [Example 26, (S)-6-Oxo-piperidine-2-carboxylic acid [(S)-6-mercapto-1-(4-trifluoromethyl-benzylcarbamoyl)-hexyl]-amide], the concentration for half-maximal inhibition (IC50) at HDAC7 (setting [2]) and at HDAC6 (setting [3]) was 100 to 500 nM each time.

`Cc1cccc(NC(=O)[C@H](CCCCCS)NC(=O)[C@@H]2CCCC(=O)N2)c1` [Example 38, (S)-6-Oxo-piperidine-2-carboxylic acid ((S)-6-mercapto-1-m-tolylcarbamoyl-hexyl)amide]: the IC50 at HDAC7 (setting [2]) and at HDAC6 (setting [3]) was under 50 nM in each case.

The values above are taken from patent US8927533B2, “Thio derivatives bearing lactams as potent HDAC inhibitors and their uses as medicaments” (SIGMA-TAU Industrie Farmaceutiche Riunite S.p.A., priority 2011, dated 2015).
